Like-named read-outs stand apart in the source and are kept apart here.
Key:
[1] = test system: Nrf2 (NQO1 activity in BEAS-2B cells); assay: BEAS-2B NQO1 MTT Assay; assay type: cell-based; conditions: Homo sapiens, NQO1 specific activity induction
Source text: NAD(P)H:quinone oxidoreductase 1 (NQO1), also called DT diaphorase, is a homodimeric FAD-containing enzyme that catalyzes obligatory NAD(P)H-dependent two-electron reductions of quinones and protects cells against the toxic and neoplastic effects of free radicals and reactive oxygen species arising from one-electron reductions. The transcription of NQO1 is finely regulated by Nrf2, and thus NQO1 activity is a good marker for Nrf2 activation. On day one, frozen BEAS-2B cells (ATCC) were thawed in a water bath, counted, and re-suspended at a concentration of 250,000 cells/mL. Fifty microliters of cells were plated in 384 well black clear-bottomed plates. Plates were incubated at 37° C., 5% CO2 overnight. On day two, plates were centrifuged and 50 nL of compound or controls were added to the cells. Plates were then incubated at 37° C., 5% CO2 for 48 hours. On day four, medium was aspirated from the plate and crude cell lysates were made by adding 13 μL of 1× Cell Signalling Technologies lysis buffer with 1 Complete, Mini, EDTA-free Protease Inhibitor Tablet (Roche) for each 10 mL of lysis buffer. After lysis plates were incubated for 20 minutes at room temperature. Two microliters of lysate were removed for use in Cell Titer Glo assay (Promega) and MTT cocktail was prepared (Prochaska et. al. 1998) for measurement of NQO1 activity. Fifty microliters of MTT cocktail was added to each well, plate was centrifuged, and analyzed on an Envision plate reader (Perkin Elmer) using Absorbance 570 nm label for 30 minutes. Product formation was measured kinetically and the pEC50 of NQO1 specific activity induction was calculated by plotting the change in absorbance (Delta OD/min) versus the log of compound concentration followed by 3-parameter fitting.
EC50s<1 nM (+++++), EC50s 1 nM-10 nM (++++), EC50s 10 nM-100 nM (+++), EC50s 100 nM-1 μM (++), EC50s 1 μM-10 μM (+).

[2] = Rat PK Study; assay type: in vivo; conditions: plasma, nominal 1 mg/kg 30-minute intravenous infusion; for MRT: read-out: Rat Pharmacokinetics MRT; for clearance: read-out: Rat Pharmacokinetics Total Clearance
Description: All studies were conducted after review by the GSK Institutional Animal Care and Use Committee and in accordance with the GSK Policy on the Care, Welfare and Treatment of Laboratory Animals. This study was conducted with a crossover design on two study days with a one-day recovery period between each study day. At least three days prior to the start of the study, three rats received surgically implanted femoral vein, femoral artery, and gastric catheters for infusion of test molecules, blood sampling, and oral dose administration, respectively. Dose solutions were filtered prior to administration and the actual dosage administered to the animals was quantified. All PK parameters were calculated based on the actual dosage administered to each animal. Urine was collected from 0-24 h following iv administration from each animal for determination of renal clearance.
(§1) The compounds used in this study were the compound of Example 1, herein, and Compound A (the compound of Example 1 of WO 2018/109646).
(§2) The dose for intravenous administration was prepared in 20% Cavitron™ and 5% DMSO. The intravenous dose formulation was filtered through a 0.22-micron polytetrafluoroethylene (PTFE) filter prior to administration. The dose for oral solution administration was prepared in 6% Cavitron™ and 5% DMSO and was filtered through a 0.22-micron VWR PTFE filter prior to administration.
Each animal received a nominal dose of 1 mg/kg (4 mL/kg dose volume) as a 30-minute intravenous infusion on study day one. On study day two, each animal received a nominal dose of 2 mg/kg (16 mL/kg dose volume) as an oral gavage. Blood samples (approximately 0.11 mL each) were collected from the femoral artery catheter. […] Plasma was isolated from blood by centrifugation and a 30 μL aliquot was transferred to a non-heparinized tube, quick frozen on solid carbon dioxide and stored at approximately −80° C. until analyzed by liquid chromatography/tandem mass spectroscopy (LC/MS/MS) for test compound concentration.
(§3) Pharmacokinetic parameters for all in vivo PK studies were calculated using non-compartmental methods with Phoenix WinNonlin version 6.1.0 or 8.1.0. All parameters were calculated using actual blood sampling times and actual dosages for each animal. The extrapolated area under the curve (AUC0-inf) was determined using unweighted linear regression analysis of at least three log transformed concentrations visually assessed to be on the linear portion of the terminal elimination slope. Oral solution bioavailability was calculated in a non-crossover fashion using the mean intravenous dose and AUC0-inf values from the two intravenously dosed animals for the monkey PK study and in a crossover fashion for the rat PK study.

[3] = Monkey PK Study; assay type: in vivo; conditions: cynomolgus monkey; for MRT / clearance: male, plasma, nominal 1 mg/kg 60-minute intravenous infusion, cassette; for MRT: read-out: Monkey Pharmacokinetics MRT; for clearance: read-out: Monkey Pharmacokinetics Total Clearance
Description: All studies were conducted after review by the GSK Institutional Animal Care and Use Committee and in accordance with the GSK Policy on the Care, Welfare and Treatment of Laboratory Animals. A pre-study health examination that included a physical exam and complete blood count was performed on the animals prior to use on study. A catheter was temporarily placed in a cephalic or saphenous vein for sample collection on the study day. The animals were fasted overnight prior to dosing; food provided after the 4-hour blood sample was collected. The intravenous and oral solution pharmacokinetic studies were carried out using a non-crossover design; a total of four male cynomolgus monkeys were used, two per route of administration.
as §1
as §2, with “was prepared as a cassette of up to five test compounds in 20%” for “was prepared in 20%”, “was prepared as a cassette of up to five compounds in 6%” for “was prepared in 6%”
Each animal received a nominal dose of 1 mg/kg/compound (4 mL/kg dose volume) either as a 60-minute intravenous infusion or as an oral gavage. Blood samples (approximately 0.25 mL each) were collected from a cephalic or saphenous vein. Blood samples from animals that received the intravenous dose were collected prior to dosing and at target times of 15, 30, 45, 60 (before termination of the infusion), 62, 65, 75, 90, 120, 180, 240, 360, 480, 600, and 1440 minutes following the initiation of the intravenous infusion. For animals that received the oral dose, blood samples were collected prior to dosing and at target times of 5, 15, 30, 45, 60, 90, 120, 180, 240, 360, 480, 600, and 1440 minutes following oral gavage. Plasma was isolated from blood by centrifugation and a 30 μL aliquot was transferred to a non-heparinized tube, quick frozen on solid carbon dioxide and stored at approximately −80° C. until analyzed by liquid chromatography/tandem mass spectroscopy (LC/MS/MS) for test compound concentration.
as §3

[4] = read-out: Nrf2 BEAS-2B NQO1 EC50

SMILES | EC50 ([1]; 48 hours, read-out: EC50) | EC50 [1, 4] | MRT [2] | clearance [2] | fold improvement in mean residence time (MRT) versus Compound A [3] | fold reduction in total clearance (CL) versus Compound A [3] | MRT [3] | clearance [3]
CC[C@@H]1CN(Cc2cc([C@@H](CC(=O)O)c3ccc4c(nnn4C)c3C)ccc2C)Cc2nc(O)ccc2O1 [Example 1, (R)-3-(1,4-dimethyl-1H-benzo[d][1,2,3]triazol-5-yl)-3-(3-(((R)-2-ethyl-7-hydroxy-2,3-dihydropyrido[2,3-f][1,4]oxazepin-4(5H)-yl)methyl)-4-methylphenyl)propanoic acid] | 10 to 100 nM | 13 nM | 6.5 h | 5.2 mL/min/kg | ~11 fold | ~27 fold | 18 h | 0.41 mL/min/kg
CC[C@@H]1CN(Cc2cc([C@@H](CC(=O)O)c3ccc4c(nnn4C)c3C)ccc2C)Cc2ncccc2O1 [Compound A, reference compound] |  | 16 nM | 4 h | 1.9 mL/min/kg |  |  | 1.6 h | 10.9 mL/min/kg
